In US20110178182A1, “ENRICHED NANOSTRUCTURE COMPOSITION” (DO-COOP TECHNOLOGIES LTD., priority 2007, published 2011):

Assays:
[1] = Solubilizing Daunorubicine; type: physicochemical; details: 2 mg/ml in GENC or RO water
Procedure: Required concentration: 2 mg/ml

[2] = Solvent capability: Taxol (Example 28); type: physicochemical; details: 0.5 mM in DMSO or in the composition with 17% EtOH
Procedure: 0.5 mM Taxol solution can be prepared (0.0017 gr in 4 ml) in either DMSO or the enriched nanostructure composition of the present embodiments with 17% EtOH. Absorbance can be detected with a spectrophotometer.

| Structure (SMILES) | dissolution [1] | dissolution [2] |
| --- | --- | --- |
| COc1cccc2c1C(=O)c1c(O)c3c(c(O)c1C2=O)C[C@@](O)(C(C)=O)C[C@@H]3O[C@H]1C[C@H](N)[C@H](O)[C@H](C)O1 [Daunorubicine] | dissolved easily both in the enriched nanostructure composition of the present embodiments and in RO water |  |
| CC(=O)O[C@H]1C(=O)[C@@]2(C)[C@H]([C@H](OC(=O)c3ccccc3)[C@]3(O)C[C@H](OC(=O)[C@H](O)[C@@H](NC(=O)c4ccccc4)c4ccccc4)C(C)=C1C3(C)C)[C@]1(OC(C)=O)CO[C@@H]1C[C@@H]2O [Taxol, Paclitaxel] |  | dissolved both in DMSO and the enriched nanostructure composition |
